Tests used:
Type in all cases: biochemical
JAK1 = target: T1, JAK1 (Homo sapiens, UniProt P23458); experiment: JAK1 inhibition (Table 4); settings: read-out: JAK1 Ki
T1 construct: made in house; host or cells: SF9 insect cells (baculovirus)

JAK2 = target: T2, JAK2 (Homo sapiens, UniProt O60674); experiment: JAK2 inhibition (Table 4); settings: read-out: JAK2 Ki
T2 construct: made in house; host or cells: SF9 insect cells (baculovirus)

JAK3 = target: T3, JAK3 (Homo sapiens, UniProt P52333); experiment: JAK3 inhibition (Table 4); settings: read-out: JAK3 Ki
T3 construct: made in house; host or cells: SF9 insect cells (baculovirus)

TYK2 = target: T4, TYK2 (Homo sapiens, UniProt P29597); experiment: TYK2 inhibition (Table 4)
T4 construct: made in house; host or cells: SF9 insect cells (baculovirus)
T4 sequence (P29597 873-1187): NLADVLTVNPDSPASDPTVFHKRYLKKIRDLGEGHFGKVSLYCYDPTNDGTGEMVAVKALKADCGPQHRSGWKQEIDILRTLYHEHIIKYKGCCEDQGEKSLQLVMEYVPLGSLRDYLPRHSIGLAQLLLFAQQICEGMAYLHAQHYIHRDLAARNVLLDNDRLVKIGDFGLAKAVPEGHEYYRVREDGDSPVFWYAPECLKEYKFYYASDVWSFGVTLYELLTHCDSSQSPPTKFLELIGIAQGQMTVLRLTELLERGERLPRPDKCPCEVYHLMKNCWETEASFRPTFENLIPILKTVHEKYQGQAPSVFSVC

T1 sequence (P23458 852-1154): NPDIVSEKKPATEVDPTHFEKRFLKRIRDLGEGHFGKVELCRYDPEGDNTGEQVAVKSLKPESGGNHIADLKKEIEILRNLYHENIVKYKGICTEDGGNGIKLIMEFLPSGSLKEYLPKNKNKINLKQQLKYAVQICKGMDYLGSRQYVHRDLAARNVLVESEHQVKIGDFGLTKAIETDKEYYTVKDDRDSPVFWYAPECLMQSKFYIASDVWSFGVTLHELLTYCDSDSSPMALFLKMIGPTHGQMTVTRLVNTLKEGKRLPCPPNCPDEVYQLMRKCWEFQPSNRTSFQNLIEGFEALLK
T3 sequence (P52333 783-1124): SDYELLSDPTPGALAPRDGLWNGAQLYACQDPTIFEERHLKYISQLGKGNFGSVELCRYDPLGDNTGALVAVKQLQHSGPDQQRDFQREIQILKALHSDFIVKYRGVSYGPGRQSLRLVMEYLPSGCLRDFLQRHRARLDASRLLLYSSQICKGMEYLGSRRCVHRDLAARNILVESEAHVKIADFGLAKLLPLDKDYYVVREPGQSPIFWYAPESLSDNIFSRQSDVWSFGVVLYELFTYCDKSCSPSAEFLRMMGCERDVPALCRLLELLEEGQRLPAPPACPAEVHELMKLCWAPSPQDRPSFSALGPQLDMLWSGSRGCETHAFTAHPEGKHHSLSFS
T2 sequence (O60674 812-1132): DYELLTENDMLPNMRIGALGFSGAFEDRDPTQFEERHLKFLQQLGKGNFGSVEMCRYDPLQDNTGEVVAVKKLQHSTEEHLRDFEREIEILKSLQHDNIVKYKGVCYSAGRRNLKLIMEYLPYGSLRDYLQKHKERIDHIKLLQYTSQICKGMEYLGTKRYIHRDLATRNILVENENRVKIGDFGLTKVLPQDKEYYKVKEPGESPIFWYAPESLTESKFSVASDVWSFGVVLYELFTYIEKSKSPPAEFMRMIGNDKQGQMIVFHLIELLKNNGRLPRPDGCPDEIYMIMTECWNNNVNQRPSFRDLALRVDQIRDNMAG

| SMILES | Ki (JAK1) [nM] | Ki (JAK2) [nM] | Ki (JAK3) [nM] | Ki (TYK2) [nM] |
| --- | --- | --- | --- | --- |
| Cc1nc2cnc3[nH]ccc3c2n1C1CCCCC1C (mixture of isomers) [Example 516, 2-Methyl-1-(2-methyl-cyclohexyl)-1,6-dihydro-1,3,5,6-tetraaza-as-indacene] | 2.17 | 2.78 | 5.35 | 7.58 |
| CC(C)NC(=O)[C@H]1CC[C@H](n2cnc3cnc4[nH]ccc4c32)CC1 [Example 247, 4-(6H-1,3,5,6-Tetraaza-as-indacen-1-yl)-cyclohexanecarboxylic acid isopropylamide] | 32.2 | 136 | 245 | 358 |
| CC(C)C(=O)NCc1nc2cnc3[nH]ccc3c2n1C1CCN(CCC#N)CC1 [Example 498, N-{1-[1-(2-Cyano-ethyl)-piperidin-4-yl]-1,6-dihydro-1,3,5,6-tetraaza-as-indacen-2-ylmethyl}-isobutyramide] | 21.9 | 67.7 | 60 | 307 |
| N#CCCN1CCC(n2c(CNC(=O)c3ccccn3)nc3cnc4[nH]ccc4c32)CC1 [Example 496, Pyridine-2-carboxylic acid {1-[1-(2-cyano-ethyl)-piperidin-4-yl]-1,6-dihydro-1,3,5,6-tetraaza-as-indacen-2-ylmethyl}-amide] | 2.75 | 8.05 | 13.1 | 55.7 |
| N#CCCN1CCC(n2c(Cc3ccc(C(N)=O)cc3)nc3cnc4[nH]ccc4c32)CC1 [Example 406, 4-{1-[1-(2-Cyano-ethyl)-piperidin-4-yl]-1,6-dihydro-1,3,5,6-tetraaza-as-indacen-2-ylmethyl}-benzamide] | 67.8 | 204 | 614 | 648 |
| N#CCC(=O)N1CCC[C@@H](n2c(CCO)nc3cnc4[nH]ccc4c32)C1 [Example 17, 3-{(R)-3-[2-(2-Hydroxy-ethyl)-6H-1,2,3,5,6-tetraaza-as-indacen-1-yl]-piperidin-1-yl}-3-oxopropionitrile] | 4.04 | 17.1 | 79.1 | 29.8 |
| O=C(Cc1nc2cnc3[nH]ccc3c2n1C1CCN(Cc2ccccc2)CC1)N1CCCC1 [Example 100, 2-[1-(1-Benzyl-piperidin-4-yl)-1,6-dihydro-1,3,5,6-tetraaza-as-indacen-2-yl]-1-pyrrolidin-1-yl-ethanone] | 22.1 | 99.2 | 16.9 | 2100 |
| Cc1nc2cnc3[nH]ccc3c2n1C1CCN(C2COC2)CC1 [Example 363, 2-Methyl-1-(1-oxetan-3-yl-piperidin-4-yl)-1,6-dihydro-1,3,5,6-tetraaza-as-indacene] | 6.05 | 11.2 | 123 | 54.6 |
| C[C@@H](O)c1nc2cnc3[nH]ccc3c2n1C1CCC(CC#N)CC1 (stereo partly drawn) [Example 743, {4-[2-((R)-1-Hydroxy-ethyl)-6H-1,3,5,6-tetraaza-as-indacen-1-yl]cyclohexyl}acetonitrile] | 0.59 | 3.68 | 14.1 | 1.23 |
| CNc1nc2cnc3[nH]ccc3c2n1C1CCN(CC(F)(F)F)CC1 [Example 658, Methyl-{1-[1-(2,2,2-trifluoro-ethyl)-piperidin-4-yl]-1,6-dihydro-1,2,3,5,6-tetraaza-as-indacen-2-yl}-amine] | 3.51 | 13.6 | 34.2 | 67.4 |
| CC1CC(n2cnc3cnc4[nH]ccc4c32)CCN1Cc1ccccc1 (racemic) [Example 128, 1-(1-Benzyl-2-methyl-piperidin-4-yl)-1,6-dihydro-1,2,3,5,6-tetraaza-as-indacene] | 2.09 | 2.11 | 60.8 | 82.6 |
| CC(O)c1nc2cnc3[nH]ccc3c2n1C1CC2CCC1O2 (single isomer, unassigned) [Example 937, Endo-1-[1-(7-Oxa-bicyclo[2.2.1]hept-2-yl)-1,6-dihydro-1,3,5,6-tetraaza-as-indacen-2-yl]-ethanol] | 80.5 | 174 | 73.3 | 144 |
| CS(=O)(=O)NCCc1nc2cnc3[nH]ccc3c2n1C1CCN(CCC#N)CC1 [Example 118, N-(2-{1-[1-(2-Cyano-ethyl)-piperidin-4-yl]-1,6-dihydro-1,2,3,5,6-tetraaza-as-indacen-2-yl}-ethyl)-methanesulfonamide] | 1.94 | 12 | 23.6 | 63.1 |
| COC[C@H]1CC[C@H](n2c([C@@H](C)O)nc3cnc4[nH]ccc4c32)CC1 [Example 637, Trans (R)-1-[1-(4-methoxymethyl-cyclohexyl)-1,6-dihydro-1,2,3,5,6-tetraaza-as-indacen-2-yl]-ethanol] | 1.89 | 35.6 | 37 | 7.42 |
| c1cc2c(ncc3nc(C4CCCN4)n(C4CCCOC4)c32)[nH]1 (single isomer, unassigned) [Example 668] | 1020 | 2940 | 2620 | 3240 |

The remaining compounds from weak to strong by Ki (JAK1), led by results:

| Ki (JAK1) [nM] | Ki (JAK2) [nM] | Ki (JAK3) [nM] | Ki (TYK2) [nM] | SMILES |
| --- | --- | --- | --- | --- |
| 164 | 183 | 652 | 1620 | O=C([C@H]1CC[C@H](n2nnc3cnc4[nH]ccc4c32)CC1)N1CCOCC1 [Example 246, Morpholin-4-yl-[4-(6H-1,2,3,5,6-pentaaza-as-indacen-1-yl)-cyclohexyl]-methanone] |
| 105 | 162 | 502 | 708 | CC(C)(O)CN1CC[C@@H](n2cnc3cnc4[nH]ccc4c32)C1 [Example 185, 2-Methyl-1-[(R)-3-(6H-1,2,3,5,6-tetraaza-as-indacen-1-yl)-pyrrolidin-1-yl]-propan-2-ol] |
| 59.6 | 56.7 | 26.2 | 335 | Cc1nc2cnc3[nH]ccc3c2n1C(C)C1CCCO1 (single isomer, unassigned) [Example 426, 2-Methyl-1-[1-(tetrahydro-furan-2-yl)-ethyl]-1,6-dihydro-1,3,5,6-tetraaza-as-indacene] |
| 42.2 | 90.4 | 453 | 157 | NC1CCCC(n2cnc3cnc4[nH]ccc4c32)C1 (single isomer, unassigned) [Example 367, 3-(6H-1,3,5,6-Tetraaza-as-indacen-1-yl)-cyclohexylamine] |
| 41.6 | 847 | 302 | 795 | NC(=O)Cc1nc2cnc3[nH]ccc3c2n1C1CCNCC1 [Example 260, 2-(1-Piperidin-4-yl-1,6-dihydro-1,3,5,6-tetraaza-as-indacen-2-yl)-acetamide] |
| 33.1 | 97.1 | 125 | 179 | CC(CC#N)N1CCC(n2c(CN3CCCC3=O)nc3cnc4[nH]ccc4c32)CC1 (racemic) [Example 399, 3-{4-[2-(2-Oxo-pyrrolidin-1-ylmethyl)-6H-1,3,5,6-tetraaza-as-indacen-1-yl]-piperidin-1-yl}-butyronitrile] |
| 14.6 | 77 | 37.7 | 420 | CN(C)c1nc2cnc3[nH]ccc3c2n1C1CCN(CCC#N)CC1 [Example 656, 3-[4-(2-Dimethylamino-6H-1,2,3,5,6-tetraaza-as-indacen-1-yl)-piperidin-1-yl]-propionitrile] |
| 12.2 | 81.4 | 126 | 149 | CNc1nc2cnc3[nH]ccc3c2n1C1CCCOC1 (stereo not shown) [Example 773, Methyl-[1-(tetrahydro-pyran-3-yl)-1,6-dihydro-1,3,5,6-tetraaza-as-indacen-2-yl]-amine] |
| 8.78 | 23.2 | 148 | 124 | COC(=O)NC1CCC(n2nnc3cnc4[nH]ccc4c32)C1 (racemic) [Example 621, Racemic trans [3-(6H-1,2,3,5,6-Pentaaza-as-indacen-1-yl)-cyclopentyl]-carbamic acid methyl ester] |
| 7.52 | 55.6 | 7.02 | 63.2 | N#CCCN1CCC(n2c(CC(=O)N3CCS(=O)(=O)CC3)nc3cnc4[nH]ccc4c32)CC1 [Example 267, 3-(4-{2-[2-(1,1-Dioxo-1lambda*6*-thiomorpholin-4-yl)-2-oxo-ethyl]-6H-1,3,5,6-tetraaza-as-indacen-1-yl}-piperidin-1-yl)-propionitrile] |
| 1.07 | 1.91 | 19 | 6.6 | N#CCC(=O)N1CCCC(n2cnc3cnc4[nH]ccc4c32)CC1 (racemic) [Example 485, 3-Oxo-3-[4-(6H-1,3,5,6-tetraaza-as-indacen-1-yl)-azepan-1-yl]-propionitrile] |
| 0.84 | 1.93 | 2.63 | 50.2 | Cc1nc2cnc3[nH]ccc3c2n1C1CCN(Cc2cccnc2)CC1 [Example 283, 2-Methyl-1-(1-pyridin-3-ylmethyl-piperidin-4-yl)-1,6-dihydro-1,3,5,6-tetraaza-as-indacene] |
| 0.42 | 1.29 | 2.14 | 5.63 | OCc1nc2cnc3[nH]ccc3c2n1C1CCN(Cc2ccccc2)CC1(F)F (racemic) [Example 947, [1-(1-Benzyl-3,3-difluoro-piperidin-4-yl)-1,6-dihydro-1,3,5,6-tetraaza-as-indacen-2-yl]-methanol] |
